Some test systems named below: SNB-75; OVCAR-4; MDA-MB-231; HL-60; KM12; SW-620; EKVX; HCT-116; MDA-MB-435; SK-MEL-5; OVCAR-3; LOX IMVI; SK-MEL-2; MOLT-4; MCF7; UACC-257; TK-10; HOP-92; RXF 393; SR.
What all share (experiment): NCI tumour cell line growth inhibition, 48 h

Results on eleven molecules are retold here after ChEMBL document CHEMBL1201862, “PubChem BioAssay data set” (2004).

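48-hour exposure; five concentrations; linearly interpolated endpoints. GI50: concentration for 50% inhibition of growth.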 Active and inactive are the calls of the source. No stated cut-off is given here; in the data, active = GI50 up to about 1.1 µM and inactive = higher.

For `CCCOC(=O)c1cc(C(=CCC[C@H]2CC[C@@]3(C)[C@@H](CC[C@@H]4[C@@H]3CC[C@]3(C)[C@@H](C(C)CCCC(C)C)CC[C@@H]43)C2)c2cc(Cl)c(O)c(C(=O)OCCC)c2)cc(Cl)c1O` (some centres undefined), the GI50 in the test with SNB-75, in the test with OVCAR-4, in the test with MDA-MB-231, in the test with HL-60, in the test on KM12 and in the test on SW-620 was > 50 µM (inactive) throughout. Moreover, the GI50 with EKVX, with HCT-116, in the test with MDA-MB-435, in the test with SK-MEL-5, with OVCAR-3 and in the test with LOX IMVI was > 50 µM (inactive) in each case. Besides, the GI50 in the test with SK-MEL-2 and in the test with MOLT-4 was > 50 µM (inactive) each time.

On to `c1ccc2c(c1)SC1=C(SC(=C3SC4=C(S3)Sc3ccccc3S4)S1)S2`, for which the GI50 is 49.4 µM (inactive) with SNB-75; > 100 µM (inactive) in the test on MCF7; > 100 µM (inactive) with OVCAR-4; > 100 µM (inactive) with MDA-MB-231; > 100 µM (inactive) with HL-60; > 100 µM (inactive) in the test on KM12. The GI50 in the test on UACC-257, in the test on SW-620, in the test on EKVX, with HCT-116, with MDA-MB-435 and in the test with TK-10 was > 100 µM (inactive) each time. Moreover, the GI50 in the test with SK-MEL-5, in the test on OVCAR-3, in the test with LOX IMVI, in the test with SK-MEL-2, with HOP-92 and with MOLT-4 was > 100 µM (inactive) in each case.

Take `CNC(=O)N(C)C(=O)c1ccccc1C(=O)N(C)C(=O)NC`: the GI50 in the test with SNB-75, in the test with MCF7, with OVCAR-4, in the test with RXF 393, with MDA-MB-231 and in the test with HL-60 was > 10 µM (inactive) each time. The GI50 in the test with SR, in the test with KM12, with UACC-257, in the test on SW-620, with EKVX and in the test with HCT-116 was > 10 µM (inactive) each time. The GI50 in the test with TK-10, in the test with SK-MEL-5, in the test with OVCAR-3, with LOX IMVI, in the test on SK-MEL-2 and with HOP-92 was > 10 µM (inactive) throughout. In addition, the GI50 in the test on MOLT-4 was > 10 µM (inactive).

`CO/C(=N\N=C\c1ccc(OC)c(OC)c1)c1ccncc1`: the GI50 in the test on SNB-75, in the test with MCF7, with OVCAR-4, in the test on MDA-MB-231, in the test with HL-60 and in the test with SR was > 10 µM (inactive) each time. For the same molecule, the GI50 in the test on KM12, with UACC-257, with SW-620, in the test with EKVX, with TK-10 and in the test with SK-MEL-5 was > 10 µM (inactive) throughout. The GI50 in the test with LOX IMVI, in the test on HOP-92 and in the test with MOLT-4 was > 10 µM (inactive) in each case.

Take `O=S(=O)(O)c1ccc(/N=N/c2ccc3c(S(=O)(=O)O)cccc3c2O)c2ccccc12`: the GI50 in the test with SNB-75, in the test on MCF7, in the test on OVCAR-4, with RXF 393, in the test on MDA-MB-231 and with KM12 was > 100 µM (inactive) in each case. Further, the GI50 with UACC-257, in the test on SW-620, with EKVX, in the test on HCT-116, with MDA-MB-435 and in the test on TK-10 was > 100 µM (inactive) throughout. Also, the GI50 with SK-MEL-5, in the test on OVCAR-3, with LOX IMVI, with SK-MEL-2 and with HOP-92 was > 100 µM (inactive) throughout.

`O=c1c2c(nc3n1CCC3)sc1c(O)c(Br)ccc12`: the GI50 in the test with SNB-75 was > 100 µM (inactive); in the test with OVCAR-4 it was 17.7 µM (inactive); in the test on RXF 393, 29.9 µM (inactive); in the test on HL-60, 14.7 µM (inactive); in the test on SR, 12.1 µM (inactive); in the test with KM12, 14.3 µM (inactive). Further, the GI50 with UACC-257 was 16.6 µM (inactive); with SW-620, 12.5 µM (inactive); in the test on EKVX it was 23.9 µM (inactive); in the test on HCT-116, 15.2 µM (inactive); with TK-10, 19.1 µM (inactive); with SK-MEL-5, 14.5 µM (inactive). Besides, the GI50 with OVCAR-3 is 19.1 µM (inactive); in the test on LOX IMVI, 13 µM (inactive); in the test on SK-MEL-2, 20.7 µM (inactive); in the test with HOP-92, > 100 µM (inactive); in the test with MOLT-4, 11.1 µM (inactive).

On to `Cc1cc2ncn(C3CCCCO3)c2cc1C` (centres undefined), for which the GI50 in the test with SNB-75, in the test on MCF7, with OVCAR-4, with RXF 393, in the test with MDA-MB-231 and in the test on HL-60 was > 100 µM (inactive) throughout. Moreover, the GI50 in the test with KM12 was 35.5 µM (inactive); with UACC-257, > 100 µM (inactive); with SW-620 it was > 100 µM (inactive); in the test on EKVX, > 100 µM (inactive); in the test with HCT-116 it was > 100 µM (inactive); with MDA-MB-435, > 100 µM (inactive). Moreover, the GI50 in the test with TK-10 was > 100 µM (inactive); in the test on SK-MEL-5, > 100 µM (inactive); in the test with OVCAR-3, > 100 µM (inactive); with LOX IMVI, 62.5 µM (inactive); in the test with SK-MEL-2, > 100 µM (inactive); in the test with HOP-92, > 100 µM (inactive). For the same molecule, in the test on MOLT-4, the GI50 was > 100 µM (inactive).

On to `NNC(=O)c1nn[nH]c1SSc1[nH]nnc1C(=O)NN`, for which the GI50 with SNB-75, in the test with MCF7, in the test on OVCAR-4, with RXF 393, in the test with MDA-MB-231 and in the test with HL-60 was > 100 µM (inactive) each time. Also, the GI50 in the test on KM12, in the test on UACC-257, in the test on SW-620, with EKVX, with HCT-116 and in the test on MDA-MB-435 was > 100 µM (inactive) throughout. Further, the GI50 with TK-10, in the test with SK-MEL-5, with OVCAR-3, with LOX IMVI, in the test with SK-MEL-2 and in the test with HOP-92 was > 100 µM (inactive) in each case. Besides, the GI50 with MOLT-4 is > 100 µM (inactive).

For the molecule `COC(=O)NC1(NC(=O)OC)NC(=O)c2ccccc2N1`, the GI50 in the test with SNB-75 was 36 µM (inactive); in the test with MCF7 it was > 100 µM (inactive); in the test with OVCAR-4, > 100 µM (inactive); with MDA-MB-231, > 100 µM (inactive); in the test with HL-60, > 100 µM (inactive); in the test with SR, > 100 µM (inactive). Besides, the GI50 was 80.4 µM (inactive) with KM12; > 100 µM (inactive) in the test on UACC-257; > 100 µM (inactive) with SW-620; > 100 µM (inactive) with EKVX; > 100 µM (inactive) in the test with HCT-116; 96.2 µM (inactive) in the test on TK-10. Further, the GI50 in the test with SK-MEL-5 was > 100 µM (inactive); in the test on OVCAR-3, > 100 µM (inactive); in the test on SK-MEL-2, 0.0145 µM (active); in the test on MOLT-4 it was > 100 µM (inactive).

In the case of `CC(C)(O)C1CC[C@]2(C)[C@H]3CC[C@@H]4[C@@]5(C)CCCC(C)(C)[C@@H]5CC[C@@]4(C)[C@]3(C)CC[C@@H]12` (some centres undefined), the GI50 in the test with MCF7, in the test on OVCAR-4, in the test on RXF 393, with MDA-MB-231, in the test on HL-60 and in the test on KM12 was > 100 µM (inactive) throughout. Besides, the GI50 in the test with UACC-257, in the test with SW-620, in the test with EKVX, with HCT-116, in the test on MDA-MB-435 and in the test with TK-10 was > 100 µM (inactive) each time. The GI50 in the test on SK-MEL-5, in the test on OVCAR-3, in the test with LOX IMVI, in the test on SK-MEL-2, in the test with HOP-92 and in the test with MOLT-4 was > 100 µM (inactive) each time.

For `O=[N+]([O-])c1cc(I)cc(/C=N/NS(=O)(=O)c2ccc(Cl)cc2)c1O`, the GI50 in the test with SNB-75 was 27 µM (inactive); with OVCAR-4, 30.5 µM (inactive); in the test on RXF 393, 23.4 µM (inactive); with HL-60 it was 27.7 µM (inactive); with SR it was 21.4 µM (inactive); in the test on KM12, 18.2 µM (inactive). The GI50 with UACC-257 is 24.4 µM (inactive); with SW-620, 27.6 µM (inactive); in the test with EKVX it was 32.6 µM (inactive); with HCT-116, 21.2 µM (inactive); with TK-10, 30.8 µM (inactive); with SK-MEL-5, 18 µM (inactive). For the same molecule, the GI50 is 19.1 µM (inactive) in the test with OVCAR-3; 19.8 µM (inactive) with LOX IMVI; 23.5 µM (inactive) in the test on SK-MEL-2; 20.5 µM (inactive) in the test on HOP-92; 19.5 µM (inactive) in the test on MOLT-4.
